In ChEMBL document CHEMBL6083253, “Chemical synthesis and enzymatic late-stage diversification of novel pantothenate analogues with antiplasmodial activity” (Eur J Med Chem, 2024):
Activity calls are given as the source filed them. No cut-off for these calls is given here.

How the values were obtained:
Plasmodium falciparum [1] = assay: Antiplasmodial activity against intraerythrocytic stage of Plasmodium falciparum 3D7 assessed as inhibition of parasite proliferation in presence of pantetheinase; assay type: functional, organism-based
Priestia megaterium [2] = assay: Substrate activity at full length C-terminal his-tagged Bacillus megaterium […] BM3 A82F/F87V double mutant preincubated for 5 min in presence of NADP+ followed by compound addition by LC-MS analysis
Priestia megaterium [3] = assay: Substrate activity at full length C-terminal his-tagged wild type Bacillus megaterium […] BM3 preincubated for 5 min in presence of NADP+ followed by compound addition by LC-MS analysis
Priestia megaterium [4] = assay: Substrate activity at full length C-terminal his-tagged Bacillus megaterium […] BM3 A82F/F87V double mutant assessed as conversion rate by UV-HPLC analysis
[5] = Binding affinity to full length C-terminal his-tagged Bacillus megaterium […] BM3 A82F/F87V double mutant assessed as dissociation constant by Morrison equation based analysis; design: species or system Priestia megaterium
Plasmodium falciparum [6] = assay: Antiplasmodial activity against Plasmodium falciparum infected in human Erythrocyte measured after 96 hrs in presence of chloroquine and 1 uM of pantothenate by SYBR green fluorescence dye based microplate reader analysis; assay type: functional, organism-based
Plasmodium falciparum [7] = assay: Antiplasmodial activity against Plasmodium falciparum infected in human Erythrocyte measured after 96 hrs in presence of chloroquine and 100 uM of pantothenate by SYBR green fluorescence dye based microplate reader analysis; assay type: functional, organism-based
[8] = Cytotoxicity against HFF cells assessed as inhibition of cell proliferation at 200 uM incubated for 96 hrs in presence of 16.8 uM of pantothenate by IncuCyte live-cell analysis; assay type: toxicity, cell-based; conditions: human
[9] = Binding affinity to full length C-terminal his-tagged Bacillus megaterium […] BM3 A82F/F87V double mutant assessed as dissociation constant by Michaelis-Menten equation based analysis; design: species or system Priestia megaterium
Plasmodium falciparum [10] = assay: Antiplasmodial activity against intraerythrocytic stage of Plasmodium falciparum 3D7 assessed as inhibition of parasite proliferation; assay type: functional, organism-based
Priestia megaterium [11] = assay: Substrate activity at wild type full length C-terminal his-tagged Bacillus megaterium […] BM3 assessed as conversion rate by UV-HPLC analysis
[12] = Cytotoxicity against HFF cells assessed as inhibition of cell proliferation at 10 uM incubated for 96 hrs by IncuCyte live-cell analysis; assay type: toxicity, cell-based; conditions: human

Compound: CCCCCc1cc(CNC(=O)[C@H](O)C(C)(C)CO)no1
- IC50 (Plasmodium falciparum [1]): 0.16 µM

Compound: CCCCCc1noc(CNC(=O)[C@H](O)C(C)(C)CO)n1
- Activity (Priestia megaterium [2]): Active
- Activity (Priestia megaterium [3]): Active
- Activity (Priestia megaterium [4]): 32.9%

Compound: CC(C)Cc1cc(CNC(=O)[C@H](O)C(C)(C)CO)no1
- Activity (Priestia megaterium [2]): Active
- Activity (Priestia megaterium [3]): Active
- Kd [5]: 3 µM
- Activity (Priestia megaterium [4]): 37.5%
- IC50 (Plasmodium falciparum [6]): 0.47 µM
- IC50 (Plasmodium falciparum [7]): > 6.3 µM
- inhibition at 96 h, 200 µM [8]: 100%

Compound: CC(C)(O)CCCc1cc(CNC(=O)[C@H](O)C(C)(C)CO)no1
- IC50 (Plasmodium falciparum [6]): 55 µM

Compound: CC(C)(CO)[C@@H](O)C(=O)NCc1cn(CCCc2ccccc2)nn1
- Activity (Priestia megaterium [2]): Active
- Activity (Priestia megaterium [3]): Active
- Kd [9]: 10 µM
- Activity (Priestia megaterium [4]): 32.3%
- IC50 (Plasmodium falciparum [10]): 25 µM
- IC50 (Plasmodium falciparum [6]): 16 µM

Compound: CCCCCn1cc(CNC(=O)[C@H](O)C(C)(C)CO)nn1
- IC50 (Plasmodium falciparum [1]): 0.056 µM

Compound: CC[S+]([O-])Cc1cc(CNC(=O)[C@H](O)C(C)(C)CO)no1 (some centres undefined)
- IC50 (Plasmodium falciparum [6]): 153 µM

Compound: CC(C)C(O)Cc1cc(CNC(=O)[C@H](O)C(C)(C)CO)no1 (some centres undefined)
- IC50 (Plasmodium falciparum [6]): 7.3 µM

Compound: CC(C)C(O)CCc1cc(CNC(=O)[C@H](O)C(C)(C)CO)no1 (some centres undefined)
- IC50 (Plasmodium falciparum [6]): 3.9 µM
- IC50 (Plasmodium falciparum [7]): > 50 µM
- inhibition at 96 h, 200 µM [8]: 101%

Compound: CC(C)C(O)c1cc(CNC(=O)[C@H](O)C(C)(C)CO)no1 (some centres undefined)
- IC50 (Plasmodium falciparum [6]): 80 µM

Compound: CCCCCNC(=O)CCNC(=O)[C@H](O)C(C)(C)CO
- Activity (Priestia megaterium [2]): inactive
- Activity (Priestia megaterium [3]): inactive

Compound: CC(C)CCCc1cc(CNC(=O)[C@H](O)C(C)(C)CO)no1
- Activity (Priestia megaterium [2]): Active
- Activity (Priestia megaterium [3]): Active
- Kd [5]: 3.7 µM
- Activity (Priestia megaterium [4]): Active
- IC50 (Plasmodium falciparum [6]): 0.35 µM
- IC50 (Plasmodium falciparum [7]): > 3.1 µM
- inhibition at 96 h, 200 µM [8]: 102%

Compound: CC(C)(CO)[C@@H](O)C(=O)NCc1cn(CC(O)Cc2ccccc2)nn1 (some centres undefined)
- IC50 (Plasmodium falciparum [6]): > 200 µM

Compound: CC(C)(C)Cc1cc(CNC(=O)[C@H](O)C(C)(C)CO)no1
- Activity (Priestia megaterium [2]): inactive
- Activity (Priestia megaterium [3]): Active
- IC50 (Plasmodium falciparum [6]): 4 µM
- IC50 (Plasmodium falciparum [7]): > 50 µM
- inhibition at 96 h, 200 µM [8]: 102%

Compound: CC(C)CCc1cc(CNC(=O)[C@H](O)C(C)(C)CO)no1
- Activity (Priestia megaterium [2]): Active
- Activity (Priestia megaterium [3]): Active
- Activity (Priestia megaterium [11]): 85.6%
- IC50 (Plasmodium falciparum [6]): 0.22 µM
- IC50 (Plasmodium falciparum [7]): > 3.1 µM
- inhibition at 96 h, 200 µM [8]: 100%

Compound: CCCCCCn1cc(CNC(=O)[C@H](O)C(C)(C)CO)nn1
- IC50 (Plasmodium falciparum [1]): 0.055 µM

Compound: CC(C)(O)CCc1cc(CNC(=O)[C@H](O)C(C)(C)CO)no1
- IC50 (Plasmodium falciparum [6]): 29 µM

Compound: CCCCCc1nnc(CNC(=O)[C@H](O)C(C)(C)CO)[nH]1
- Activity (Priestia megaterium [2]): inactive
- Activity (Priestia megaterium [3]): inactive

Compound: CCSCc1cc(CNC(=O)[C@H](O)C(C)(C)CO)no1
- Activity (Priestia megaterium [2]): Active
- Activity (Priestia megaterium [3]): Active
- Kd [5]: 0.9 µM
- Activity (Priestia megaterium [4]): Active
- IC50 (Plasmodium falciparum [6]): 0.13 µM
- IC50 (Plasmodium falciparum [7]): > 1.6 µM
- inhibition at 96 h, 200 µM [8]: 100%

Compound: C[C@@H]1C[C@@H]([C@H](O)CC2CC(=O)NC(=O)C2)C(=O)[C@@H](C)C1 [CYCLOHEXIMIDE]
- inhibition at 96 h, 10 µM [12]: 100%

Compound: CCCCc1cc(CNC(=O)[C@H](O)C(C)(C)CO)no1
- IC50 (Plasmodium falciparum [1]): 0.072 µM

Compound: CCCCCc1nnc(CNC(=O)[C@H](O)C(C)(C)CO)o1
- Activity (Priestia megaterium [2]): inactive
- Activity (Priestia megaterium [3]): inactive

Compound: CCC(C)c1cc(CNC(=O)[C@H](O)C(C)(C)CO)no1 (some centres undefined)
- Activity (Priestia megaterium [2]): inactive
- Activity (Priestia megaterium [3]): inactive
- IC50 (Plasmodium falciparum [6]): 10 µM
